According to patent US5438052A, “Cephalosporin derivatives” (Hoffmann-La Roche Inc., priority 1991, dated 1995):
Values after ≈ are worked out from the molar mass of the structure shown. Like-named read-outs stand apart in the source and are kept apart here.

Legend:
[1] = test system: C. freundii 902; assay: Minimum inhibitory concentration in vitro, agar dilution method; assay type: cell-based; conditions: Citrobacter freundii
Text: (§1) 1. Minimum Inhibitory Concentration in vitro
(§2) The activities ascertained, minimum inhibitory concentration (MIC) in μg/ml, are compiled in Table 1 hereinafter: […]

[2] = test system: E. cloacae 908R; assay: as above; assay type: cell-based; conditions: Enterobacter cloacae
Text: as §1, §2

[3] = test system: E. cloacae 908SSi; assay: as above; assay type: cell-based; conditions: Enterobacter cloacae
Text: as §1, §2

[4] = test system: E. cloacae P99; assay: as above; assay type: cell-based; conditions: Enterobacter cloacae
Text: as §1, §2

[5] = test system: E. coli 25922; assay: as above; assay type: cell-based; conditions: Escherichia coli
Text: as §1, §2

[6] = test system: K. oxytoca 1082; assay: as above; assay type: cell-based; conditions: Klebsiella oxytoca
Text: as §1, §2

[7] = test system: K. pneumoniae 418; assay: as above; assay type: cell-based; conditions: Klebsiella pneumoniae
Text: as §1, §2

[8] = test system: P. aeruginosa 27853; assay: as above; assay type: cell-based; conditions: Pseudomonas aeruginosa
Text: as §1, §2

[9] = test system: P. aeruginosa 799/61; assay: as above; assay type: cell-based; conditions: Pseudomonas aeruginosa
Text: as §1, §2

[10] = test system: P. aeruginosa 799/WT; assay: as above; assay type: cell-based; conditions: Pseudomonas aeruginosa
Text: as §1, §2

[11] = test system: P. aeruginosa BA; assay: as above; assay type: cell-based; conditions: Pseudomonas aeruginosa
Text: as §1, §2

[12] = test system: P. aeruginosa MK1184; assay: as above; assay type: cell-based; conditions: Pseudomonas aeruginosa
Text: as §1, §2

[13] = test system: P. mirabilis 2117; assay: as above; assay type: cell-based; conditions: Proteus mirabilis
Text: as §1, §2

[14] = test system: P. vulgaris 1028; assay: as above; assay type: cell-based; conditions: Proteus vulgaris
Text: as §1, §2

[15] = test system: S. aureus 6538; assay: as above; assay type: cell-based; conditions: Staphylococcus aureus
Text: as §1, §2

[16] = test system: S. marcescens 69438; assay: as above; assay type: cell-based; conditions: Serratia marcescens
Text: as §1, §2

[17] = test system: S. pneumoniae BA; assay: as above; assay type: cell-based; conditions: Streptococcus pneumoniae
Text: as §1, §2

[18] = test system: S. pyogenes 15; assay: as above; assay type: cell-based; conditions: Streptococcus pyogenes
Text: as §1, §2

[19] = test system: E. coli 25922; assay: Experimental systemic septicaemia in the mouse; assay type: in vivo; conditions: 96 h
How it was run: (§3)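 ED50 in mg/kg s.c. is the Probit-derived dose protecting half the mice, judged on survival 4 days after i.p. challenge (about 5-100× 48 h LD50) in 16-20 g albino mice, 5 per group. Dosing was s.c. in 2% Tween 80 at 1 and 3 h, plus 5 h for P. aeruginosa.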

[20] = test system: Pseudomonas aeruginosa BA; assay: Experimental systemic septicaemia in the mouse; assay type: in vivo; conditions: sc, 96 h
How it was run: as §3

[21] = test system: S. aureus Schoch; assay: Experimental systemic septicaemia in the mouse; assay type: in vivo; conditions: Staphylococcus aureus, sc, 96 h
How it was run: as §3

[22] = test system: E. aerogenes CF153; assay: Minimum inhibitory concentration in vitro, agar dilution method; assay type: cell-based; conditions: Klebsiella aerogenes; E. aerogenes CF153, agar dilution; read-out: MIC
Text: as §1, §2

[23] = C. freundii 902, agar dilution, read-out: MIC
[24] = E. cloacae 908R, agar dilution, read-out: MIC
[25] = E. cloacae 908SSi, agar dilution, read-out: MIC
[26] = E. coli 25922, agar dilution, read-out: MIC
[27] = K. oxytoca 1082, agar dilution, read-out: MIC
[28] = K. pneumoniae 418, agar dilution, read-out: MIC
[29] = P. aeruginosa 27853, agar dilution, read-out: MIC
[30] = P. aeruginosa 799/61, agar dilution, read-out: MIC
[31] = P. aeruginosa 799/WT, agar dilution, read-out: MIC
[32] = P. aeruginosa BA, agar dilution, read-out: MIC
[33] = P. aeruginosa MK1184, agar dilution, read-out: MIC
[34] = P. mirabilis 2117, agar dilution, read-out: MIC
[35] = P. vulgaris 1028, agar dilution, read-out: MIC
[36] = S. aureus 6538, agar dilution, read-out: MIC
[37] = S. marcescens 69438, agar dilution, read-out: MIC
[38] = S. pneumoniae BA, agar dilution, read-out: MIC
[39] = S. pyogenes 15, agar dilution, read-out: MIC
[40] = Escherichia coli, sc, E. coli 25922, albino mice, s.c. 1 and 3 hours after infection, survival after 4 days, read-out: ED50
[41] = P. aeruginosa BA, albino mice, s.c. 1, 3 and 5 hours after infection, survival after 4 days, read-out: ED50
[42] = S. aureus Schoch, albino mice, s.c. 1 and 3 hours after infection, survival after 4 days, read-out: ED50

Row | Structure (SMILES) | MIC [1, 23] | MIC [2, 24] | MIC [3, 25] | MIC [4] | MIC [5, 26] | MIC [6, 27] | MIC [7, 28] | MIC [8, 29] | MIC [9, 30] | MIC [10, 31] | MIC [11, 32] | MIC [12, 33] | MIC [13, 34] | MIC [14, 35] | MIC [15, 36] | MIC [16, 37] | MIC [17, 38] | MIC [18, 39] | ED50 [19, 40] | ED50 [20, 41] | further results
1 | Nc1nc(/C(=N/OCc2cc(=O)c(O)co2)C(=O)N[C@@H]2C(=O)N3C(C(=O)O)=C(CSc4cc(-c5ccc(O)c(O)c5)nc5ccnn45)CS[C@H]23)cs1 [Example 14, (6R,7R)-7-[(Z)-2-(2-amino-4-thiazolyl)-2-[[(5-hydroxy-4-oxo-4H-pyran-2-yl)methoxy]imino]acetamido]-3-[[[5-(3,4-dihydroxyphenyl)pyrazolo[1,5-a]pyrimidin-7-yl]thio]methyl]-8-oxo-5-thia-1-azabicyclo[4.2.0]oct-2-ene-2-carboxylicacid] | 1 µg/mL (≈ 1.31 µM) | 2 µg/mL (≈ 2.62 µM) | 1 µg/mL (≈ 1.31 µM) | 16 µg/mL (≈ 20.9 µM) | 0.12 µg/mL (≈ 0.157 µM) | 0.12 µg/mL (≈ 0.157 µM) | 0.06 µg/mL (≈ 0.0785 µM) | 4 µg/mL (≈ 5.23 µM) | 0.06 µg/mL (≈ 0.0785 µM) | 1 µg/mL (≈ 1.31 µM) | 4 µg/mL (≈ 5.23 µM) | 16 µg/mL (≈ 20.9 µM) | 0.5 µg/mL (≈ 0.654 µM) | 0.25 µg/mL (≈ 0.327 µM) | 16 µg/mL (≈ 20.9 µM) | 0.25 µg/mL (≈ 0.327 µM) | 0.5 µg/mL (≈ 0.654 µM) | 0.5 µg/mL (≈ 0.654 µM) | 4.4 mg/kg | 7.1 mg/kg | ED50 [21, 42]: > 12 mg/kg
2 | Cc1ncc(-c2ccc(O)c(O)c2)c(SCC2=C(C(=O)O)N3C(=O)[C@@H](NC(=O)/C(=N\OC(C)(C)C(=O)NO)c4csc(N)n4)[C@H]3SC2)n1 [Example 19b] | < 0.1 µg/mL | 2 µg/mL (≈ 2.79 µM) | 2 µg/mL (≈ 2.79 µM) | 8 µg/mL (≈ 11.2 µM) | < 0.1 µg/mL | 0.5 µg/mL (≈ 0.698 µM) | < 0.1 µg/mL | 0.25 µg/mL (≈ 0.349 µM) | < 0.1 µg/mL | 0.25 µg/mL (≈ 0.349 µM) | 0.5 µg/mL (≈ 0.698 µM) | 8 µg/mL (≈ 11.2 µM) | 0.25 µg/mL (≈ 0.349 µM) | < 0.1 µg/mL | 16 µg/mL (≈ 22.3 µM) | < 0.1 µg/mL |  | 0.25 µg/mL (≈ 0.349 µM) | 0.78 mg/kg | > 3 mg/kg | MIC [22]: < 0.1 µg/mL
3 | Cc1cc(SCC2=C(C(=O)[O-])N3C(=O)[C@@H](NC(=O)/C(=N\OC(C)(C)C(=O)NNC(=O)c4ccc(O)c(O)c4)c4csc(N)n4)[C@H]3SC2)n2nc(CNS(=O)(=O)c3ccc(O)c(O)c3)nc2n1.[Na+] [Example 42, (6R,7R)-7-[(Z)-2-(2-amino-4-thiazolyl)-2-[[1-[3-(3,4-dihydroxybenzoyl)carbazoyl]-1-methylethoxy]imino]acetamido]-3-[[[2-[(3,4-dihydroxybenzenesulphonamido)methyl]-5-methyl-s-triazolo[1,5-a]pyrimidin-7-yl]thio]methyl]-8-oxo-5-thia-1-azabicyclo[4.2.0]oct-2-ene-2-carboxylic acid sodium salt (1:1)] |  |  |  |  |  |  |  |  |  |  |  |  |  |  |  |  |  |  |  |  | MIC [1]; 902: < 0.1 µg/mL; MIC ([2]; 908R): 0.5 µg/mL; MIC ([3]; 908SSI): 4 µg/mL; MIC [5]; 25922: < 0.1 µg/mL; MIC [6]; 1082: < 0.1 µg/mL; MIC [7]; 418: < 0.1 µg/mL; MIC [8]; 27853: 0.25 µg/mL; MIC ([9]; 799/61): < 0.1 µg/mL; MIC ([10]; 799/WT): < 0.1 µg/mL; MIC [11]: < 0.1 µg/mL; MIC ([12]; MK1184): < 0.1 µg/mL; MIC [13]; 2117: 0.12 µg/mL; MIC [14]; 1028: 0.25 µg/mL; MIC [15]; 6538: 32 µg/mL; MIC [16]; 69438: 0.12 µg/mL; MIC [17]: 4 µg/mL; MIC [18]; 15: 8 µg/mL; ED50 ([19]; Escherichia coli, 25922, sc): 0.005 mg/kg; ED50 [20]: 0.017 mg/kg; ED50 [21]: 10 mg/kg
4 | Cc1cc(SCC2=C(C(=O)O)N3C(=O)[C@@H](NC(=O)/C(=N\OC(C)(C)C(=O)NNC(=O)c4ccc(O)c(O)c4)c4csc(N)n4)[C@H]3SC2)n2nc(CS(=O)(=O)c3ccc(O)c(O)c3)nc2n1 [Example 44] | 0.25 µg/mL (≈ 0.258 µM) | 1 µg/mL (≈ 1.03 µM) | 8 µg/mL (≈ 8.25 µM) |  | < 0.1 µg/mL | < 0.1 µg/mL | < 0.1 µg/mL | 0.5 µg/mL (≈ 0.515 µM) | < 0.1 µg/mL | 0.12 µg/mL (≈ 0.124 µM) | < 0.1 µg/mL | 0.12 µg/mL (≈ 0.124 µM) | 0.25 µg/mL (≈ 0.258 µM) | 0.25 µg/mL (≈ 0.258 µM) | 32 µg/mL (≈ 33 µM) | 0.25 µg/mL (≈ 0.258 µM) | 1 µg/mL (≈ 1.03 µM) | 8 µg/mL (≈ 8.25 µM) | < 0.05 mg/kg | < 0.01 mg/kg | ED50 [21, 42]: > 12 mg/kg
